Laboratory results taken from the kinase profiling compilation of Christmann-Franck et al. (2016).

Columns and labels:
Assay in all cases: Free Choice Kinase Assay Projects, Flashplate
MAPK14 (human) = MAPK14 (human) (UniProt Q16539); details: compound 10.0 µM; ATP 1 µM
SRC (human) = SRC (human) (UniProt P12931); details: compound 10.0 µM; ATP 0.3 µM
MAP3K8 (human) = MAP3K8 (human) (UniProt P41279); details: compound 10.0 µM; ATP 3 µM
EPHB4 (human) = EPHB4 (human) (UniProt P54760); details: compound 10.0 µM; ATP 1 µM
ERBB2 (human) = ERBB2 (human) (UniProt P04626); details: compound 10.0 µM; ATP 1 µM
TEK (human) = TEK (human) (UniProt Q02763); details: compound 10.0 µM; ATP 1 µM
NUAK1 (human) = NUAK1 (human) (UniProt O60285); details: compound 10.0 µM; ATP 1 µM
AURKA (human) = AURKA (human) (UniProt O14965); details: compound 10.0 µM; ATP 10 µM
AKT1 (human) = AKT1 (human) (UniProt P31749); details: compound 10.0 µM; ATP 3 µM
KDR (human) = KDR (human) (UniProt P35968); details: compound 10.0 µM; ATP 1 µM
AURKB (human) = AURKB (human) (UniProt Q96GD4); details: compound 10.0 µM; ATP 10 µM
PLK4 (human) = PLK4 (human) (UniProt O00444); details: compound 10.0 µM; ATP 0.3 µM
MET (human) = MET (human) (UniProt P08581); details: compound 10.0 µM; ATP 0.3 µM
PDGFRB (human) = PDGFRB (human) (UniProt P09619); details: compound 10.0 µM; ATP 0.3 µM
PLK1 (human) = PLK1 (human) (UniProt P53350); details: compound 10.0 µM; ATP 1 µM
EGFR (human) = EGFR (human) (UniProt P00533); details: compound 10.0 µM; ATP 0.3 µM
IGF1R (human) = IGF1R (human) (UniProt P08069); details: compound 10.0 µM; ATP 1 µM
AXL (human) = AXL (human) (UniProt P30530); details: compound 10.0 µM; ATP 0.3 µM
PTK2 (human) = PTK2 (human) (UniProt Q05397); details: compound 10.0 µM; ATP 1 µM
CDK2 CCNA2 (human) = CDK2 CCNA2 (human) (UniProt P24941+P20248); details: compound 10.0 µM; ATP 0.3 µM
CSNK2A1 (human) = CSNK2A1 (human) (UniProt P68400); details: compound 10.0 µM; ATP 0.1 µM
MAPK10 (human) = MAPK10 (human) (UniProt P53779); details: compound 10.0 µM; ATP 0.3 µM
CDK4 CCND1 (human) = CDK4 CCND1 (human) (UniProt P11802+P24385); details: compound 10.0 µM; ATP 3 µM

Sequence of AKT1 (human) (P31749 whole entry, looked up): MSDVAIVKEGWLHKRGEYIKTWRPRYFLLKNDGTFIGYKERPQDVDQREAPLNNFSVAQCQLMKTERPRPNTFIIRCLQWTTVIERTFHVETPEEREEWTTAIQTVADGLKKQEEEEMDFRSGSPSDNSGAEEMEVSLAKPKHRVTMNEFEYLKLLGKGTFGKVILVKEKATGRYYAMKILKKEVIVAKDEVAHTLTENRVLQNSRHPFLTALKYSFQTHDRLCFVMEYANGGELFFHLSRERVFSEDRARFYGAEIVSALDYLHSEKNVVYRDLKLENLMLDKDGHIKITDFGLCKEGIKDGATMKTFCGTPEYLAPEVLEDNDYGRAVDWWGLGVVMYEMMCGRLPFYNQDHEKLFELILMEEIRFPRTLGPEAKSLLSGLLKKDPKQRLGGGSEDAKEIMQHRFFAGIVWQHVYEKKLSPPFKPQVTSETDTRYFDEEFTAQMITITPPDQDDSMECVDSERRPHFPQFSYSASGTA
Sequence of PLK1 (human) (P53350 whole entry, looked up): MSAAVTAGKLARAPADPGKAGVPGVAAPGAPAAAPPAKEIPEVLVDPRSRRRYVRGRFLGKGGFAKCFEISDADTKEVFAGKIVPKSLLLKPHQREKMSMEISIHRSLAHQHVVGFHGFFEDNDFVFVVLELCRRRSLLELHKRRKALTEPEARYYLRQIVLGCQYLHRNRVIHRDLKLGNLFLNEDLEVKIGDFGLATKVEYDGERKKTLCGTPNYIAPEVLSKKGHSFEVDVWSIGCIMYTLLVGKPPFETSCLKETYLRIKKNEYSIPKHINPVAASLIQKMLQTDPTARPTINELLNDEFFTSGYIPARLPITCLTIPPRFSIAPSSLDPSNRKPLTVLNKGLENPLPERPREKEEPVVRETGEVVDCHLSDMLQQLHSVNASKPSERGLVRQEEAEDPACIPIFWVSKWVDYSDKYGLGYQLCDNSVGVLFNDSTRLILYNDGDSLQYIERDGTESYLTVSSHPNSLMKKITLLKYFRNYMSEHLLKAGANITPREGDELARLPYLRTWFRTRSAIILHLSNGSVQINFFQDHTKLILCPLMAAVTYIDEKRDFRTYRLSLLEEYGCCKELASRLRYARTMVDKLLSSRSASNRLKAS
Sequence of PDGFRB (human) (P09619 whole entry, looked up): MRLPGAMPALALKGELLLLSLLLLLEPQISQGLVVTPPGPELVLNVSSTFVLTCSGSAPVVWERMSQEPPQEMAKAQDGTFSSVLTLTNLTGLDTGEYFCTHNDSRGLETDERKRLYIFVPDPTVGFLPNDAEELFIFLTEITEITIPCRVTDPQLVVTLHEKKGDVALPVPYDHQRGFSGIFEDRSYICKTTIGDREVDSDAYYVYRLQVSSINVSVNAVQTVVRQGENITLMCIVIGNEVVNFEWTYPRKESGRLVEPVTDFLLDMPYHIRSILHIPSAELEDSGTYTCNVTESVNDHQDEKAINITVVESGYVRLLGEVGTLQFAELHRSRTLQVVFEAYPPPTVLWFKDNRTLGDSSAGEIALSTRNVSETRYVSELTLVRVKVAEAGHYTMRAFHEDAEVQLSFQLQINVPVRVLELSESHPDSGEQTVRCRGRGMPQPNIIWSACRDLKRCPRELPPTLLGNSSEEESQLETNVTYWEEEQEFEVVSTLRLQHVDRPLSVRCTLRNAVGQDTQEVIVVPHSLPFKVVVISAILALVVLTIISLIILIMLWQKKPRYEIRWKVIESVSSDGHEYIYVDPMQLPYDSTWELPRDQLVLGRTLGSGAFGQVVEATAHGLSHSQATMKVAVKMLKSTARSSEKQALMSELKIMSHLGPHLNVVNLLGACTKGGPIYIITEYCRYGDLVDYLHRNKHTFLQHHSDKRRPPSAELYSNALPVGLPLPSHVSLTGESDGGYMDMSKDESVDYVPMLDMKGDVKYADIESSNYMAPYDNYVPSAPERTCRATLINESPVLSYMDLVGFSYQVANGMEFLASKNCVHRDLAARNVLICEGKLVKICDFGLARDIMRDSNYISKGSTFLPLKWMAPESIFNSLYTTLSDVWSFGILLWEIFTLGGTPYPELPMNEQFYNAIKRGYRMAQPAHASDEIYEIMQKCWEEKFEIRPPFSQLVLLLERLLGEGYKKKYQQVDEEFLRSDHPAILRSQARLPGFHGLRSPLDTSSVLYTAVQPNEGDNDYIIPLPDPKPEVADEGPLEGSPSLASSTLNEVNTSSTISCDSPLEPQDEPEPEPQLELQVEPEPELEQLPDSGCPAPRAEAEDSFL
Sequence of PLK4 (human) (O00444 whole entry, looked up): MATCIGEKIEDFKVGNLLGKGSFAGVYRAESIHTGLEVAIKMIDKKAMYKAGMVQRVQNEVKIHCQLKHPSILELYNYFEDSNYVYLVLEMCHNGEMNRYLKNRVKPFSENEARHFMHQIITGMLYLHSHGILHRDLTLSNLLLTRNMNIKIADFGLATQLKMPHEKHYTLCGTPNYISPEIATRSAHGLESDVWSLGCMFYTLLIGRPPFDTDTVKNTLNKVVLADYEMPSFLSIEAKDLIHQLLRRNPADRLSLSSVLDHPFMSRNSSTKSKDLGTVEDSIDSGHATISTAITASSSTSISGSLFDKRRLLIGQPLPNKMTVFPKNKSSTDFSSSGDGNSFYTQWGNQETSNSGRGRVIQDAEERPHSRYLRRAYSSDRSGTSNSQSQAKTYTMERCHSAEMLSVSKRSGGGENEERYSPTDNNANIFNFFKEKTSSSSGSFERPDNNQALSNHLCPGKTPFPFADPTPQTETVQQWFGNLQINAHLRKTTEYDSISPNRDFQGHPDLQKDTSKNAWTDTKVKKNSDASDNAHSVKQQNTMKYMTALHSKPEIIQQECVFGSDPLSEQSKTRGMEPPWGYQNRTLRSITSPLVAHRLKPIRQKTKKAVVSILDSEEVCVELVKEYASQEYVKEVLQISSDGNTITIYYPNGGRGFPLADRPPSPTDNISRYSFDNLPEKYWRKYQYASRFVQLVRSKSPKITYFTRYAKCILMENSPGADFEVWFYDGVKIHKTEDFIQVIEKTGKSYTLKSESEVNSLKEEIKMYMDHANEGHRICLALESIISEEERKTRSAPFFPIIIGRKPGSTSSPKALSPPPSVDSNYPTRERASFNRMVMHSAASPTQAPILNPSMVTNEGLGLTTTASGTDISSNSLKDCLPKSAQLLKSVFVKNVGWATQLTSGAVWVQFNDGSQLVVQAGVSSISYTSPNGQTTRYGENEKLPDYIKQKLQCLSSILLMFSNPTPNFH
Sequence of ERBB2 (human) (P04626 whole entry, looked up): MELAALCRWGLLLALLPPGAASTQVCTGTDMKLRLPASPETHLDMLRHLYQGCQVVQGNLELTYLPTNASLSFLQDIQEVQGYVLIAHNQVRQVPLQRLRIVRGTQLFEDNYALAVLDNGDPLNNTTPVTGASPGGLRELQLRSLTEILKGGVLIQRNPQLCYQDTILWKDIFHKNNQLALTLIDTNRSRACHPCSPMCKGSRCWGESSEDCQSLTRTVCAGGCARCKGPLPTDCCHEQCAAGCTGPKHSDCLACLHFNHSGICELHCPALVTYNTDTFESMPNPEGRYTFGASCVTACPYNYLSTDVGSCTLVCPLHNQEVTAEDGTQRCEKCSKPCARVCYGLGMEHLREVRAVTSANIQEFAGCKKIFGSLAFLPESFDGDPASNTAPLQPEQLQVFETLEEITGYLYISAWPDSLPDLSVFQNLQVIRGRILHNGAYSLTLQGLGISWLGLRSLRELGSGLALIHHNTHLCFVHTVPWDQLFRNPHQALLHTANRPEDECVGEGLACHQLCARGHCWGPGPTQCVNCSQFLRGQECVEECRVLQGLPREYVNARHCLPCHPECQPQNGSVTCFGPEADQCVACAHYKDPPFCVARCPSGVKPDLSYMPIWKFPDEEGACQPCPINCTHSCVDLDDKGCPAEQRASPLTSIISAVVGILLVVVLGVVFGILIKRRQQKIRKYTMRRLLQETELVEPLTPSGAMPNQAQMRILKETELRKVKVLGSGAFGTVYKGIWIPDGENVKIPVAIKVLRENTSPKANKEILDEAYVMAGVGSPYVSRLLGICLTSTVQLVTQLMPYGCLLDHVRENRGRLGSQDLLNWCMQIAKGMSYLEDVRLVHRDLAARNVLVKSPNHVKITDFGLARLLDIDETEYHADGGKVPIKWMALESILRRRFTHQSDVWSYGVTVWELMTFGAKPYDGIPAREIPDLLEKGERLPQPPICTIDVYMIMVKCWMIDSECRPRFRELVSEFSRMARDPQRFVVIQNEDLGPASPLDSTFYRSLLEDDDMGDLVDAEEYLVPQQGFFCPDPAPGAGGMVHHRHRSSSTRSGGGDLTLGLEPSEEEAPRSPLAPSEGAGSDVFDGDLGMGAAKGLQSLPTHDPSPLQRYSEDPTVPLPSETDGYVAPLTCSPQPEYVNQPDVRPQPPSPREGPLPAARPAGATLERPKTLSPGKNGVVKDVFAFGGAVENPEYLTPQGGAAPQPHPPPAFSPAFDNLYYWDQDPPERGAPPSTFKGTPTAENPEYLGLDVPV
Sequence of CDK2 CCNA2 (human) (P20248 whole entry, looked up, other chains not shown): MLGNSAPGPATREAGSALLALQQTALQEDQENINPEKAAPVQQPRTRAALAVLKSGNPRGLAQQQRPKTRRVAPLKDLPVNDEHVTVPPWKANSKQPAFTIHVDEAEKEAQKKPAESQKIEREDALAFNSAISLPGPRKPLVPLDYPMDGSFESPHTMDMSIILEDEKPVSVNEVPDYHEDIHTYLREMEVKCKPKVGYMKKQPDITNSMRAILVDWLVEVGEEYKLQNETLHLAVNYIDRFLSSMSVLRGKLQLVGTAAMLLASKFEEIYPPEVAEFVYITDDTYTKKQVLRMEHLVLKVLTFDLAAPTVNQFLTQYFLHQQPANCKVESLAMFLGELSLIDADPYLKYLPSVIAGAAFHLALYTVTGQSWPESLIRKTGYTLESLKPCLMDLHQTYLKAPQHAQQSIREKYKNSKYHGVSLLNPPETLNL

Compound | residual activity (MAPK14 (human)) | residual activity (SRC (human)) | residual activity (MAP3K8 (human)) | residual activity (EPHB4 (human)) | residual activity (ERBB2 (human)) | residual activity (TEK (human)) | residual activity (NUAK1 (human)) | residual activity (AURKA (human)) | residual activity (AKT1 (human)) | residual activity (KDR (human)) | residual activity (AURKB (human)) | residual activity (PLK4 (human)) | residual activity (MET (human)) | residual activity (PDGFRB (human)) | residual activity (PLK1 (human)) | residual activity (EGFR (human)) | residual activity (IGF1R (human)) | residual activity (AXL (human)) | residual activity (PTK2 (human)) | residual activity (CDK2 CCNA2 (human)) | further results
On1c(/C=C/c2ccccc2)nc(-c2ccncc2)c1-c1ccc(F)cc1 | 3% | 5% | 48% | 19% | 4% | 5% | 51% | 18% | 76% | 9% | 18% | 7% | 23% | 31% | 51% | 1% | 13% | 42% | 65% | 20% | residual activity (CSNK2A1 (human)): 68%; residual activity (MAPK10 (human)): 9%; residual activity (CDK4 CCND1 (human)): 21%
CSc1ccc(CSc2nc(-c3ccncc3)c(-c3ccc(F)cc3)[nH]2)cc1 | 16% | 20% | 75% | 40% | 25% | 21% | 122% | 79% | 100% | 33% | 71% | 21% | 51% | 53% | 115% | 36% | 23% | 65% | 130% | 42% | residual activity (CSNK2A1 (human)): 76%; residual activity (MAPK10 (human)): 72%; residual activity (CDK4 CCND1 (human)): 84%
On1c(CCc2ccccc2)nc(-c2ccncc2)c1-c1ccc(F)cc1 | 0% | 4% | 78% | 32% | 2% | 18% | 100% | 44% | 144% | 4% | 41% | 16% | 44% | 37% | 100% | 1% | 17% | 79% | 87% | 54% | residual activity (CSNK2A1 (human)): 82%; residual activity (MAPK10 (human)): 14%; residual activity (CDK4 CCND1 (human)): 84%
CSc1nc(-c2ccnc(NC(=O)C3CC3)c2)c(-c2ccc(F)cc2)n1C | 1% | 13% | 104% | 9% | 17% | 8% | 109% | 31% | 121% | 2% | 47% | 56% | 81% | 29% | 114% | 11% | 53% | 18% | 53% | 234% | residual activity (CSNK2A1 (human)): 89%; residual activity (MAPK10 (human)): 11%; residual activity (CDK4 CCND1 (human)): 109%
Fc1ccc(-c2[nH]c(SCc3cccc4ccccc34)nc2-c2ccncc2)cc1 | 3% | 8% | 46% | 21% | 9% | 11% | 53% | 54% | 60% | 24% | 57% | 9% | 40% | 39% | 46% | 8% | 17% | 59% | 124% | 20% | residual activity (CSNK2A1 (human)): 77%; residual activity (MAPK10 (human)): 17%; residual activity (CDK4 CCND1 (human)): 44%
Fc1ccc(-c2[nH]c(CCc3ccccc3)nc2-c2ccncc2)cc1 | 0% | 1% | 69% | 13% | 2% | 9% | 89% | 44% | 76% | 4% | 50% | 26% | 35% | 20% | 95% | 1% | 18% | 54% | 99% | 45% | residual activity (CSNK2A1 (human)): 81%; residual activity (MAPK10 (human)): 14%; residual activity (CDK4 CCND1 (human)): 99%

Second part, led by results:

residual activity (MAPK14 (human)) | residual activity (SRC (human)) | residual activity (MAP3K8 (human)) | residual activity (EPHB4 (human)) | residual activity (ERBB2 (human)) | residual activity (TEK (human)) | residual activity (NUAK1 (human)) | residual activity (AURKA (human)) | residual activity (AKT1 (human)) | residual activity (KDR (human)) | residual activity (AURKB (human)) | residual activity (PLK4 (human)) | residual activity (MET (human)) | residual activity (PDGFRB (human)) | residual activity (PLK1 (human)) | residual activity (EGFR (human)) | residual activity (IGF1R (human)) | residual activity (AXL (human)) | residual activity (PTK2 (human)) | residual activity (CDK2 CCNA2 (human)) | Compound | further results
9% | 17% | 58% | 42% | 9% | 16% | 71% | 62% | 75% | 38% | 47% | 24% | 53% | 44% | 60% | 7% | 42% | 62% | 120% | 43% | Fc1ccc(-c2[nH]c(SCc3ccccc3)nc2-c2ccnc(Cl)c2)cc1 | residual activity (CSNK2A1 (human)): 95%; residual activity (MAPK10 (human)): 57%; residual activity (CDK4 CCND1 (human)): 48%
6% | 32% | 91% | 44% | 11% | 32% | 108% | 74% | 137% | 42% | 74% | 38% | 71% | 64% | 104% | 11% | 49% | 96% | 128% | 54% | Oc1ccccc1CSc1nc(-c2ccncc2)c(-c2ccc(F)cc2)[nH]1 | residual activity (CSNK2A1 (human)): 90%; residual activity (MAPK10 (human)): 46%; residual activity (CDK4 CCND1 (human)): 79%
3% | 42% | 76% | 49% | 23% | 50% | 93% | 79% | 110% | 58% | 80% | 71% | 89% | 76% | 94% | 19% | 72% | 82% | 86% | 77% | Fc1ccc(-c2[nH]c(SCc3ccccc3)nc2-c2ccncc2)cc1 | residual activity (CSNK2A1 (human)): 94%; residual activity (MAPK10 (human)): 41%; residual activity (CDK4 CCND1 (human)): 101%
